Laboratory results taken from patent publication US20260146044A1, “AROMATIC COMPOUND, PHARMACEUTICAL COMPOSITION CONTAINING SAME, AND USE THEREOF” (Increland, priority 2023, published 2026).

Key:
[1] = system: secretion levels of IL-6 in PBMC cells; assay: Inhibition of LPS+IL-1β-induced IL-6 secretion in PBMC (IL-6 ELISA); assay type: cell-based; settings: human PBMC, 24 h compound pre-incubation, 20 h stimulation
[2] = Pharmacokinetic experiment on mice (iv and ig); assay type: in vivo; settings: mouse, plasma, BALB/c Mice; for bioavailability: ig 5.00 mg/kg vs iv 1.00 mg/kg, read-out: Oral bioavailability Fobs (%); for Cmax: read-out: Peak plasma concentration Cmax
[3] = Pharmacokinetic experiment on SD rats (iv and ig); assay type: in vivo; settings: Sprague-Dawley, rat, plasma; for Cmax: read-out: Peak plasma concentration Cmax; for bioavailability: ig 5.00 mg/kg vs iv 1.00 mg/kg, read-out: Oral bioavailability Fobs (%)
Method: Pharmacokinetic experiment on SD rats: in this experiment, two administration modes: oral intragastric administration and tail vein injection were selected. Each of the compounds of the present patented invention was administered at an oral dose of 5 mg/kg at an administration volume of 10 mL/kg. […] Appropriate amounts of Solutol and H2O were proportionally added sequentially, and fully mixed ultrasonically by vortexing, to prepare a clear drug solution at 0.5 mg/mL. ICL004-protodrug was administered by intravenous injection at a dose of 1 mg/kg at an administration volume of 10 mL/kg. Right before use, an appropriate amount of the drug was accurately weighed, to prepare a final volume of 20% PEG 400 and 80% Saline. Appropriate amounts of PEG 400 and Saline were proportionally added sequentially, and fully mixed ultrasonically by vortexing, to prepare a clear drug solution at 0.1 mg/mL.
6 SD rats, each with body weight of 180-220 g, were randomly grouped into 2 groups. After fasting but with free access to water overnight, each […] in the first group was administered by gavage. 200 μL of blood was sampled from its eye socket into an anticoagulant tube respectively at each time point of 15 min, 30 min, 1 h, 2 h, 4 h, 6 h, 8 h, and 24 h after administration. Within one h, each of the blood samples was centrifuged at 10,000 rpm at 4° C. for 20 min (the sample was stored on an ice box prior to the centrifugation), and the supernatant (i.e., the plasma) was stored in a refrigerator at −20° C. for LC-MS/MS analysis. 200 μL of blood was sampled from the eye socket of each […] in the second group into an anticoagulant tube respectively at each time point of 5 min, 15 min, 30 min, 1 h, 2 h, 4 h, 8 h, and 24 h after administration by intravenous injection. Within one h, each of the blood samples was centrifuged at 10,000 rpm at 4° C. for 20 min (the blood sample was stored on an ice box prior to the centrifugation), and the supernatant, i.e., the plasma, was stored in a refrigerator at −20° C. for LC-MS/MS analysis.

bioavailability ([2]; po)	AUC ([2]; po, ig, 5.00 mg/kg)	AUC(0-inf) ([2]; po, ig, 5.00 mg/kg)	Cmax ([2]; po, ig, 5.00 mg/kg)	AUC ([2]; iv, 1.00 mg/kg)	AUC(0-inf) ([2]; iv, 1.00 mg/kg)	Cmax ([2]; iv, 1.00 mg/kg)	AUC ([3]; iv, 1.00 mg/kg)	AUC(0-inf) ([3]; iv, 1.00 mg/kg)	Cmax ([3]; iv, 1.00 mg/kg)	bioavailability ([3]; po)	AUC ([3]; po, ig, 5.00 mg/kg)	AUC(0-inf) ([3]; po, ig, 5.00 mg/kg)	Cmax ([3]; po, ig, 5.00 mg/kg)	Structure (SMILES)	IC50 [1]
48.4%	1770 ng·h/mL	1920 ng·h/mL	342 ng/mL	790 ng·h/mL	795 ng·h/mL	276 ng/mL	499 ng·h/mL	526 ng·h/mL	225 ng/mL	46.6%	580 ng·h/mL	1230 ng·h/mL	79.7 ng/mL	Cc1nn(C2CCC(=O)NC2=O)c2cccc(N3CC4CN(C[C@H]5CC[C@H](n6cc7cc(NC(=O)c8cnn9cccnc89)c(N8CCOCC8)cc7n6)CC5)CC4C3)c12 (stereo partly drawn) [TM-57]	8.67 nM
63%	10100 ng·h/mL	10100 ng·h/mL	1300 ng/mL	3220 ng·h/mL	3220 ng·h/mL	605 ng/mL	537 ng·h/mL	776 ng·h/mL	101 ng/mL	7.87%	268 ng·h/mL	306 ng·h/mL	23 ng/mL	Cc1nn(C2CCC(=O)NC2=O)c2cncc(N3CCN(C[C@H]4CC[C@H](n5cc6cc(NC(=O)c7cnn8cccnc78)c(N7CCO[C@H](C)C7)cc6n5)CC4)CC3)c12 (stereo partly drawn) [TM-109]	39.2 nM
